For experiment [1], the system named is CD40(−) erythroleukemic tumor, K562. Kind of experiment: CD40(−) K562 erythroleukemic tumor growth in SCID-beige mice. The experiment is classed as in vivo, human tumor in SCID-beige mice. The note with it: K562 with human T cells and DC; single IP injection; Day 21. Here is the method: (§1) The effects of a CD40 antibody (21.4.1) on the growth of CD40(−) tumors (e.g., erythroleukemia and colon carcinoma) were examined. In particular, K562 tumors were chosen to assess the efficacy of 21.4.1 against a CD40(−) low immunogenic (class I and II negative) tumor.
(§2) SCID-beige mice were injected SC with the CD40(−) erythroleukemic tumor, K562 (ATCC CCL-243) alone or in the presence of human peripheral blood T cells and DCs. Animals received a single IP injection of 21.4.1 either at the time of tumor injection or 5 days later using various dose levels.

Experiment [2] relates to CD40(+) Raji B cell lymphoma. Kind of experiment: CD40(+) Raji B cell lymphoma growth in SCID-beige mice. The experiment is classed as in vivo, human tumor in SCID-beige mice. Here is the method:
SCID-beige mice were injected subcutaneously with the CD40(+) Raji B cell lymphoma (ATCC CCL-86) (SC) followed by a single dose of 21.4.1 (IP) at the time of tumor injection. Some animals were also injected with human T cells and DC. Tumor growth was assessed on Day 21.

For experiment [3], the system named is breast tumor, BT 474. Nature of the experiment: Established BT 474 breast tumors: antibody and/or cisplatin. The class given is in vivo, human tumor in SCID-beige mice. The conditions noted are these: single IP injection once tumors reached 200 mm^2; antibody 1 mg/kg, cisplatin 2.5 mg/kg; Day 84. Here is the method: The therapeutic effects of an anti-CD40 antibody (21.4.1) in preventing the growth of human breast tumors alone and in the presence of cisplatin was examined.
SCID-beige mice were injected SC with the breast tumor, BT 474. The antibody (1 mg/kg, IP) and/or cisplatin (2.5 mg/kg, IP) were administered as a single injection once tumors reached a size of 200 mm^2. Tumor growth was measured on Day 84 after challenge.

Experiment [4] relates to CD40(−) colon carcinoma, Lovo. Nature of the experiment: CD40(−) Lovo colon carcinoma growth in SCID-beige mice. The class given is in vivo, human tumor in SCID-beige mice. The conditions noted are these: immune cells present; compared with K562 results. Here is the method: as §1, §2
The amount of 21.4.1 to cause a 50% inhibition of tumor growth was 0.005 mg/kg corresponding to a Cmax serum concentration of 0.05 μg/mL. […] The results were identical when 21.4.1 was administered on Day 0 or Day +5 relative to tumor challenge. The growth of these CD40(−) tumors was not inhibited by 21.4.1 in the absence of immune cells.

Experiment [5] deals with human breast tumor, BT 474. Nature of the experiment: BT 474 breast tumor growth with human T cells and DC in SCID-beige mice. The note with it: in the presence of immune cells; single injection. The class given is in vivo. The source says: SCID-beige mice were challenged with the human breast tumor, BT 474 (ATCC HTB-20), SC, together with human peripheral blood T cells and DC. Animals received a single dose of 21.4.1 (IP) at the time of tumor injection.

Experiment [6] concerns B cell lymphoma Daudi. Nature of the experiment: Mortality in systemic Daudi B cell lymphoma model. The conditions noted are these: Daudi IV; single IP injection; monitored for 58 days. The experiment is classed as in vivo, human tumor in SCID-beige mice. Here is the method: The ability of an anti-CD40 antibody according to the invention (21.4.1) to delay mortality in a CD40(+) systemic tumor model using a B cell lymphoma was assessed.
SCID-beige mice were injected IV with the B cell lymphoma Daudi (ATCC CCL-213). 21.4.1 was administered as a single injection (IP) at the time of tumor injection. Mortality was monitored for 58 days.

These results are taken from patent publication US20120263732A1, “CD40 ANTIBODY FORMULATION AND METHODS” (PFIZER INC., priority 2003, published 2012).

On to “3.1.1H-A78T-V88A-V97A/3.1.1L-L4M-L83V: 3.1.1 variant with three heavy chain and two light chain substitutions; SEQ ID NOs:9, 2, 10, 4”, for which the “amount to cause a 50% inhibition of tumor growth (IC50)” value is < 0.01 mg/kg in experiment [1] and < 0.01 mg/kg in experiment [2] (Raji in the absence of immune cells, single IP dose, Day 21).

Take `N.N.[Cl][Pt][Cl]` [cisplatin, cis-diaminedichloroplatinum, reference compound]: the “tumor growth, single agent” value in experiment [3] is listed as “prevented tumor growth”.

With “3.1.1: human anti-CD40 antibody; amino acid sequences SEQ ID NOs:1-4; hybridoma deposit PTA-3600”, in experiment [4], the “inhibition of Lovo colon carcinoma growth” value is reported as “demonstrated”. In experiment [5], the “growth of BT 474 cells” value is recorded as “demonstrated”. In experiment [2] (Raji), the “anti-tumor activity against CD40(+) tumors when immune cells were present” value is given as “demonstrated”. For the same molecule, the “mortality induced by systemically administered tumor cell line” value in experiment [6] is given as “demonstrated”. For the same molecule, in experiment [3], the “tumor growth, single agent” value is “demonstrated”.
